# Measurements from patent US12077503B2, “Substituted cyclic amides and their use as herbicides” (FMC CORPORATION, priority 2015, dated 2024).
# Assays:
# Format in all cases: in vivo
# Kochia (Kochia scoparia) [1] = assay: Test A preemergence; conditions: Bassia scoparia, pre-emergence, 240 h
# In short: (§1)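 Visual injury, scored on a 0–100 scale relative to untreated controls, was recorded about 10 d after application. Treatments were a preemergence soil spray over planted seeds or a postemergence spray on plants at the one- to two-leaf stage, 2 to 10 cm tall, all in loam soil–sand blend in the greenhouse.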
# [2] = test system: pigweed (Amaranthus retroflexus); assay: Test A preemergence; conditions: Amaranthus retroflexus, pre-emergence, 240 h
# [3] = test system: ryegrass, Italian (Italian ryegrass, Lolium multiflorum); assay: Test A preemergence; conditions: Lolium multiflorum, pre-emergence, 240 h
# In short: as §1
# [4] = test system: barnyardgrass (Echinochloa crus-galli); assay: Test A preemergence; conditions: Echinochloa crus-galli, pre-emergence, 240 h
# In short: as §1
# [5] = test system: ragweed (common ragweed, Ambrosia elatior); assay: Test A preemergence; conditions: Ambrosia artemisiifolia, pre-emergence, 240 h
# In short: as §1
# [6] = test system: giant foxtail (Setaria faberii); assay: Test A preemergence; conditions: Setaria faberi, pre-emergence, 240 h
# In short: as §1
# [7] = test system: sedge, umbrella (small-flower umbrella sedge, Cyperus difformis); assay: Test B flooded paddy test; conditions: Cyperus difformis, 250 g ai/ha, Flood; 0 to 100 scale where 0 is no effect and 100 is complete control; read-out: Sedge, Umbrella plant response rating
# In short: (§2)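 Rating scale 0–100 (visual, vs untreated controls) after a 13–15 d greenhouse period; application to the flood layer, 3 cm above soil and maintained; plants at 2-leaf stage when treated.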
# [8] = test system: ducksalad (Heteranthera limosa); assay: Test B flooded paddy test; conditions: Heteranthera limosa, Flood, 250 g ai/ha; scale of 0 to 100 where 0 is no effect and 100 is complete control; read-out: Ducksalad plant response rating
# In short: as §2
# [9] = test system: barnyardgrass (Echinochloa crus-galli); assay: Test B flooded paddy test; conditions: Echinochloa crus-galli, Flood, 250 g ai/ha; scale of 0 to 100 where 0 is no effect and 100 is complete control; read-out: Barnyardgrass plant response rating
# In short: as §2
# rice (Oryra sativa) = assay: Test B flooded paddy test; conditions: Oryza sativa, Flood, 250 g ai/ha; scale of 0 to 100 where 0 is no effect and 100 is complete control; read-out: Rice plant response rating
# In short: as §2
# Kochia (Kochia scoparia) [10] = assay: Test A postemergence; conditions: Bassia scoparia, post-emergence, 240 h, 125 g ai/ha, Postemergence; visual injury after approximately 10 d; 0 to 100 scale where 0 is no effect and 100 is complete control; read-out: Plant response rating, Kochia
# In short: as §1
# [11] = test system: pigweed (Amaranthus retroflexus); assay: Test A postemergence; conditions: Amaranthus retroflexus, post-emergence, 240 h, 125 g ai/ha, Postemergence; visual injury after approximately 10 d; 0 to 100 scale where 0 is no effect and 100 is complete control; read-out: Plant response rating, Pigweed
# In short: as §1
# [12] = test system: ryegrass, Italian (Italian ryegrass, Lolium multiflorum); assay: Test A postemergence; conditions: Lolium multiflorum, post-emergence, 240 h, 125 g ai/ha, Postemergence; visual injury after approximately 10 d; 0 to 100 scale where 0 is no effect and 100 is complete control; read-out: Plant response rating, Ryegrass, Italian
# In short: as §1
# [13] = test system: wheat (Triticum aestivum); assay: Test A postemergence; conditions: Triticum aestivum, post-emergence, 240 h, 125 g ai/ha, Postemergence; visual injury after approximately 10 d; 0 to 100 scale where 0 is no effect and 100 is complete control; read-out: Plant response rating, Wheat
# In short: as §1
# corn (Zea mays) = assay: Test A postemergence; conditions: Zea mays, post-emergence, 240 h, 125 g ai/ha, Postemergence; visual injury after approximately 10 d; 0 to 100 scale where 0 is no effect and 100 is complete control
# In short: as §1
# [14] = test system: barnyardgrass (Echinochloa crus-galli); assay: Test A postemergence; conditions: Echinochloa crus-galli, post-emergence, 240 h, 125 g ai/ha, Postemergence; visual injury after approximately 10 d; 0 to 100 scale where 0 is no effect and 100 is complete control; read-out: Plant response rating, Barnyardgrass
# In short: as §1
# [15] = test system: ragweed (common ragweed, Ambrosia elatior); assay: Test A postemergence; conditions: Ambrosia artemisiifolia, post-emergence, 240 h, 125 g ai/ha, Postemergence; visual injury after approximately 10 d; 0 to 100 scale where 0 is no effect and 100 is complete control; read-out: Plant response rating, Ragweed
# In short: as §1
# [16] = test system: blackgrass (Alopecurus myosuroides); assay: Test A postemergence; conditions: Alopecurus myosuroides, post-emergence, 240 h, 125 g ai/ha, Postemergence; visual injury after approximately 10 d; 0 to 100 scale where 0 is no effect and 100 is complete control; read-out: Plant response rating, Blackgrass
# In short: as §1
# [17] = test system: Galium (catchweed bedstraw, Galium aparine); assay: Test A postemergence; conditions: Galium, post-emergence, 240 h, 125 g ai/ha, Postemergence; visual injury after approximately 10 d; 0 to 100 scale where 0 is no effect and 100 is complete control; read-out: Plant response rating, Galium
# In short: as §1
# [18] = test system: giant foxtail (Setaria faberii); assay: Test A postemergence; conditions: Setaria faberi, post-emergence, 240 h, 125 g ai/ha, Postemergence; visual injury after approximately 10 d; 0 to 100 scale where 0 is no effect and 100 is complete control; read-out: Plant response rating, Foxtail, Giant
# In short: as §1
smiles,measurement,setting,value
CSc1ccccc1NC(=O)[C@H]1C(=O)N(C)C[C@@H]1c1ccc(F)c(Br)c1 [Compound 990],pest or weed control at 125 g/ha,"Kochia (Kochia scoparia) [1]; 125 g ai/ha, Preemergence, visual injury rating after approximately 10 d, read-out: Kochia plant response rating (0 to 100 scale, 0 is no effect, 100 is complete control)",70%
same,pest or weed control at 500 g/ha,"Kochia (Kochia scoparia) [1]; 500 g ai/ha, preemergence, visual injury rating about 10 d after treatment, 0 to 100 scale (0 no effect, 100 complete control), read-out: Kochia plant response rating",90%
same,pest or weed control at 125 g/ha,"[2]; 125 g ai/ha, Preemergence, visual injury rating after approximately 10 d, read-out: Pigweed plant response rating (0 to 100 scale, 0 is no effect, 100 is complete control)",40%
same,pest or weed control at 500 g/ha,"[2]; 500 g ai/ha, preemergence, visual injury rating about 10 d after treatment, 0 to 100 scale (0 no effect, 100 complete control), read-out: Pigweed plant response rating",80%
same,pest or weed control at 125 g/ha,"[3]; 125 g ai/ha, Preemergence, visual injury rating after approximately 10 d, read-out: Ryegrass, Italian plant response rating (0 to 100 scale, 0 is no effect, 100 is complete control)",0%
same,pest or weed control at 500 g/ha,"[3]; 500 g ai/ha, preemergence, visual injury rating about 10 d after treatment, 0 to 100 scale (0 no effect, 100 complete control), read-out: Ryegrass, Italian plant response rating",60%
same,pest or weed control at 125 g/ha,"[4]; 125 g ai/ha, Preemergence, visual injury rating after approximately 10 d, read-out: Barnyardgrass plant response rating (0 to 100 scale, 0 is no effect, 100 is complete control)",100%
same,pest or weed control at 500 g/ha,"[4]; 500 g ai/ha, preemergence, visual injury rating about 10 d after treatment, 0 to 100 scale (0 no effect, 100 complete control), read-out: Barnyardgrass plant response rating",100%
same,pest or weed control at 125 g/ha,"[5]; 125 g ai/ha, Preemergence, visual injury rating after approximately 10 d, read-out: Ragweed plant response rating (0 to 100 scale, 0 is no effect, 100 is complete control)",50%
same,pest or weed control at 500 g/ha,"[5]; 500 g ai/ha, preemergence, visual injury rating about 10 d after treatment, 0 to 100 scale (0 no effect, 100 complete control), read-out: Ragweed plant response rating",80%
same,pest or weed control at 125 g/ha,"[6]; 125 g ai/ha, Preemergence, visual injury rating after approximately 10 d, read-out: Foxtail, Giant plant response rating (0 to 100 scale, 0 is no effect, 100 is complete control)",100%
same,pest or weed control at 500 g/ha,"[6]; 500 g ai/ha, preemergence, visual injury rating about 10 d after treatment, 0 to 100 scale (0 no effect, 100 complete control), read-out: Foxtail, Giant plant response rating",100%
same,pest or weed control at 250 g/ha,[7],0%
same,pest or weed control at 250 g/ha,[8],100%
same,pest or weed control at 250 g/ha,[9],50%
same,pest or weed control at 250 g/ha,rice (Oryra sativa),55%
same,pest or weed control at 125 g/ha,Kochia (Kochia scoparia) [10],40%
same,pest or weed control at 125 g/ha,[11],30%
same,pest or weed control at 125 g/ha,[12],20%
same,plant injury at 125 g/ha,[13],0%
same,"Corn plant response rating (crop injury, 0 = no effect, 100 = complete kill) at 125 g/ha",corn (Zea mays),40%
same,pest or weed control at 125 g/ha,[14],90%
same,pest or weed control at 125 g/ha,[15],0%
same,pest or weed control at 125 g/ha,[16],0%
same,pest or weed control at 125 g/ha,[17],60%
same,pest or weed control at 125 g/ha,[18],80%
